Assay results published in patent publication US9249128B2 (priority 2010, dated 2016).
pIC50: −log10 of the molar value. Read-outs that look alike come from different tables or passages of the source.

What was measured:
Format in all cases: biochemical
HSL = target: T1, HSL (Mus musculus, UniProt P54310); test: Competitive ABPP of HSL in rosiglitazone-differentiated 3T3-10T1/2 adipocyte proteome
T1 construct: ABPP analysis of HSL from a rosiglitazone-differentiated 3T3-10T1/2 adipocyte proteome; endogenous in cells; host or cells: rosiglitazone-differentiated 3T3-10T1/2 adipocytes
T1 sequence (P54310 1-759): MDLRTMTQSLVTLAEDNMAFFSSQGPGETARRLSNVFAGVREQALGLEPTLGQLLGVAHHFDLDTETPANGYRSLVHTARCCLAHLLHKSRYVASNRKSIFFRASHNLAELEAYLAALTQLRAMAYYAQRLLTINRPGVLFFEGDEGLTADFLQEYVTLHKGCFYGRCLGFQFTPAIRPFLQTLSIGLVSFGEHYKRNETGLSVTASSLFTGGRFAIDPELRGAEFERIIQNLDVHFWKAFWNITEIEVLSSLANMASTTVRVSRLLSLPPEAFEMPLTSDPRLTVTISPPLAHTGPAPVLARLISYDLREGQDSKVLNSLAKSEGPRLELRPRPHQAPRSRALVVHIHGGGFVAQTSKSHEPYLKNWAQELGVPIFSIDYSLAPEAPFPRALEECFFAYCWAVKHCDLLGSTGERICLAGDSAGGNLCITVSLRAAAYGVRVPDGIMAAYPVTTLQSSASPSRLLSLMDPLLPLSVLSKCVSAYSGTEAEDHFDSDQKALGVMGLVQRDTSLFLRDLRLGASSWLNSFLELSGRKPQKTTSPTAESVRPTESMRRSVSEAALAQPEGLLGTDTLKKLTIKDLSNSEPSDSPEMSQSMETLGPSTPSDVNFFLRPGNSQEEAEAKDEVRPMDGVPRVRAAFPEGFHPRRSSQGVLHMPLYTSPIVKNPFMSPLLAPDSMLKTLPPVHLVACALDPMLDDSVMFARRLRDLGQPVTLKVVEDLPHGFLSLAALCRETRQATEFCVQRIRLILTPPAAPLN
Method: (§1) For ABPP experiments, cell lysate and tissue proteomes were treated with 1 μM FP-rhodamine for 30 min at room temperature (50 μL total reaction volume) as described previously (Nomura et al., 2010). Reactions were quenched with one volume of standard 4×SDS/PAGE loading buffer (reducing), separated by SDS/PAGE (10% acrylamide), and visualized in-gel with a Hitachi FMBio IIe flatbed fluorescence scanner (MiraiBio). Inhibitors were preincubated prior (30 min or 4 h at 37° C. in vitro or in situ, respectively) to the addition of FP-rhodamine.

AChE = target: T2, AChE (Mus musculus, UniProt P21836); test: AChE activity assay with acetylthiocholine in mouse brain proteome; conditions: for Cross-reactivity with AChE: acetylthiocholine hydrolysis in mouse brain membrane proteome; for pIC50: mouse brain proteome, substrate acetylthiocholine, n=3, read-out: IC50 for AChE (FIG. 2D)
T2 construct: 20 μg of cell lysate or mouse brain membrane proteome; from tissue; host or cells: mouse brain (membrane proteome)
T2 sequence (P21836 32-614): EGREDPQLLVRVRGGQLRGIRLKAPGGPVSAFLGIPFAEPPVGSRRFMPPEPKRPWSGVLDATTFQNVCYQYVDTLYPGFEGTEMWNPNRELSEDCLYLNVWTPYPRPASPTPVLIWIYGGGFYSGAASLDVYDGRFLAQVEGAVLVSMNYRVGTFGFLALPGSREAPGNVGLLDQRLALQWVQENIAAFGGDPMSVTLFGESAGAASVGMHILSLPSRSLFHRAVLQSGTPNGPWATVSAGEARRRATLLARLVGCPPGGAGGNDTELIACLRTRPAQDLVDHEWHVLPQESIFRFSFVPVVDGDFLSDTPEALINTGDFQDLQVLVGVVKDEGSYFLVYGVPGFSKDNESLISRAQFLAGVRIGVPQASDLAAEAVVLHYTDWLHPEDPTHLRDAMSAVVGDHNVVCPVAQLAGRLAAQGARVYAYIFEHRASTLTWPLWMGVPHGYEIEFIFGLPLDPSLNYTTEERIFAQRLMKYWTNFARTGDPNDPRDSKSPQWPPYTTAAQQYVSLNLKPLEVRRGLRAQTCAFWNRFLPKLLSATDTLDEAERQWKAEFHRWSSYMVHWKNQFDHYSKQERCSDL
Method: AChE activity was measured using a method similar to that described previously (Ellman et al., 1961). Briefly, 50 μL of 10 mM acetylthiocholine was added to 200 μL of PBS containing 2 mM DTNB and 20 μg of cell lysate or mouse brain membrane proteome. Absorbance was measured at 412 nm over 5 min, and the rate of product accumulation was calculated from the slope of the absorbance over time. For assays involving preincubation with inhibitors, the reactions were prepared without acetylthiocholine and JW480 was incubated at the indicated concentration for 30 min at 37° C. Acetylthiocholine was then added and the assay was carried out exactly as described above.

KIAA1363 = target: T3, KIAA1363 (Mus musculus, UniProt Q8BLF1); test: Gel-based competitive ABPP of KIAA1363 in mouse brain membrane proteome (FP-rhodamine)
T3 construct: ABPP analysis of KIAA1363 activity in mouse brain membrane proteome; from tissue; host or cells: mouse brain (membrane fraction)
T3 sequence (Q8BLF1 1-408): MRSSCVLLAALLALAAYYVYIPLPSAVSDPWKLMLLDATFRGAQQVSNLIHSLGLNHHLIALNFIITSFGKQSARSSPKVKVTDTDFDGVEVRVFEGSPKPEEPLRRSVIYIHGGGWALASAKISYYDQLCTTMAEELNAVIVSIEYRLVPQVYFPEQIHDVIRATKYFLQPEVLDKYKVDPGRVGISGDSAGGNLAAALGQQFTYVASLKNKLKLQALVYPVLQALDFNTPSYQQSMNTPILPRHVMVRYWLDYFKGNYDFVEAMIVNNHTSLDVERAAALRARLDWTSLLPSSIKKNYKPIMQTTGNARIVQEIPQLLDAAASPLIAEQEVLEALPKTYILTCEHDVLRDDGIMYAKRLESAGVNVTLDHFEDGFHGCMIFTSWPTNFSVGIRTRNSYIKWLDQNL
Method: In various embodiments, the invention provides a method of inhibiting a serine hydrolase, comprising contacting the hydrolase with a compound of formula (I), e.g., a compound selected from set of compounds shown in Table 1, below. […] IC50 values were derived from ABPP analysis of KIAA1363 activity in mouse brain membrane proteome and are averages of three replicates. Inhibitors were added to the proteome for 30 min before addition of FP-rhodamine (1 μM, 30 min).
Tissues were Dounce-homogenized in PBS, pH 7.4, followed by a low-speed spin (1,400 g, 5 min) to remove debris. The supernatant was then subjected to centrifugation (100,000×g, 45 min) to provide the cytosolic fraction in the supernatant and the unsoluble fraction as a pellet. The pellet was washed and resuspended in PBS buffer by sonication. Total protein concentration in each fraction was determined using a protein assay kit (Bio-Rad). Samples were stored at −80° C. until use.
as §1

[1] = competitive ABPP in mouse brain proteome, n=3, read-out: IC50 for KIAA1363 (FIG. 2D)
[2] = mouse brain KIAA1363, read-out: IC50 for KIAA1363
[3] = mouse brain membrane proteome, inhibitor 30 min before FP-rhodamine (1 μM, 30 min), averages of three replicates, read-out: IC50 (KIAA1363)

SMILES | Cross-reactivity with HSL (HSL) | Cross-reactivity with AChE (AChE) | pIC50 (AChE) | pIC50 (KIAA1363; [1]) | pIC50 (KIAA1363; [2]) | pIC50 (KIAA1363; [3]) | pIC50 (KIAA1363; screened against KIAA1363, Table 1, read-out: IC50 values of less than 1 micromolar) | pIC50 (KIAA1363; screened against KIAA1363, Table 1, read-out: IC50 values of around 10 nanomolar (most potent))
COc1ccc(CNC(=O)Oc2cccc3c2OC(C)(C)C3)cc1 [JW148, 2,2-dimethyl-2,3-dihydrobenzofuran-7-yl 4-methoxybenzylcarbamate] | cross-reactivity | cross-reactivity | 6.00 | 6.70 | ~6.70 | 6.93 | > 6.00 | 
CC(C)c1ccccc1OC(=O)NCCc1ccc2ccccc2c1 [JW480, 2-isopropylphenyl (2-(naphthalen-2-yl)ethyl)carbamate] | negligible cross-reactivity | negligible cross-reactivity | < 4.00 | 7.70 | 7.70 | 7.86 |  | ~8.00
